Patent US7018796B2, “Preincubation assay methods” (Shionogi & Co., Ltd., priority 2000, dated 2006)

Tests used:
[1] = target: T1, HCV RNA-dependent RNA polymerase (Hepatitis C virus genotype 1a, UniProt P27958); assay: Pre-incubation assay method with 3H-UTP (Example 1); type: biochemical
T1 construct: HCV RNA-dependent RNA polymerase is encoded in the NS5B (nonstructural protein 5B) region of HCV; made in house; host or cells: insect cells or E. coli
Description: A HCV RNA-dependent RNA polymerase, template RNA, primer RNA and Mg ion (Mg^2+) are pre-incubated at approximately 25° C. for approximately 1 hour. After that, substrate RNA and a test substance are added to start an enzyme reaction and measure an enzyme activity. IC50 value can be calculated by comparing with an enzyme activity measured in the absence of a test substance as well as the above prior method. An inhibitor can be selected by comparing IC50. An example of a procedure of this method is shown in the later described Example 1.
A cDNA encoding HCV RNA-dependent RNA polymerase was made by use of HCV positive human plasma and HCV RNA-dependent RNA polymerase was expressed using the insect cells or the E. coli. HCV RNA-dependent RNA polymerase in the cell extract was purified by use of an anion exchange chromatography, a heparin affinity chromatography, a polyU affinity chromatography, a cation exchange chromatography and gel filtration chromatography. The purification was performed at 4° C. and Tris buffer (pH 7.5) containing ethylenediaminetetraacetic acid (1 mM), dithiothreitol (10 mM) and glycerol (20%) was used. The enzyme purified was stored at 4° C. until use for the assays.
• 1) The buffer I ^1) (10.5 μl) containing Tris-HCl (100 mM, pH 7.5), MgCl2 (25 mM), dithiothreitol (5 mM), KCl (125 mM) and ethylenediaminetetraacetic acid (5 mM) was transferred to a polypropylene tube and then poly(A)^2) solution (100 μg/ml, 10.5 μl), oligo(U)12 ^3) solution (1 μg/ml, 10.5 μl) and water (8 μl) were added into the tube and mixed. • 2) Next, HCV RNA-dependent RNA polymerase (10.5 μl) was added into the tube and pre-incubated at 25° C. for […]. • 3) The enzyme solution pre-incubated (50 μl) was added to a test compound (5.26 μl/well) dissolved with dimethyl sulfoxide or water in a well of a 96-wells microtiter plate. • 4) Additionally, the buffer II (10.6 μl) containing Tris-HCl (100 mM, pH 7.5), MgCl2 (25 mM), dithiothreitol (5 mM), KCl (125 mM), ethylenediaminetetraacetic acid (5 mM) and UTP • 4) (2.1 μM, 1 μCi ^3H-UTP), was mixed with water (39.4 μl). The mixture (50 μl) was added into the well and mix, and then the enzyme reaction was performed at 25° C. for 30 min. • 5) After enzyme reaction for 30 min, the enzyme reaction was stopped by adding disodium ethylenediaminetetraacetic acid (50 mM, 50 μl). • 6) By use of the cell-harvester, all volume of the enzyme reaction sample was transferred onto a filtermat bound with diethylaminoethyl base (referred to as DEAE-filtermat) and washed twice for 10 sec with sodium phosphate buffer (0.25 M, pH 7.0) and once for 10 sec with de-ionized water. • 7) The DEAE-filtermat was dried at 95° C. for 15 min and transferred into a sample bag with liquid scintillater (10 ml), and then a sample bag was sealed. • 8) The radio activity was measured by a scintillation counter. • 9) The inhibitory rate was calculated from the radioactivity measured (ccpm) as follows. [formula]
The concentration of compound at 50% inhibition (IC50 value) was calculated from the compound concentration used and the inhibitory rate calculated.
When use of a compound at a μg/ml results in A % inhibition and use of a compound at β μg/ml results in B % inhibition on condition of A≧50>B the IC50 value is obtained by the calculation as follows. IC50 (μg/ml)=10^[(50−B)/(A−B)×(log^α^−log^β^)+log^β^]

[2] = target: T1, HCV RNA-dependent RNA polymerase; assay: Time course of HCV RdRp inhibitory effect against pre-incubation time and temperature (Examinations 3 and 4); type: biochemical; details: for Influence of pre-incubation on inhibitory effect at 2° C., 20° C. and 25° C. (FIG. 6, FIG. 7): pre-incubation at any temperature; for Influence of pre-incubation time on inhibitory effect (FIG. 5): pre-incubation time 0 to 180 min
Description: In the screening for HCV RNA-dependent RNA polymerase inhibitor, there is a dissociation of inhibitory effect as a different point between an assay method of the present invention and a prior assay method. […] Therefore, the influence of pre-incubation on the inhibitory value of enzyme inhibitor was determined. Using several compounds which evaluated RdRp inhibition in the prior assay method, the time course of HCV RdRp inhibitory effect was determined for 0 min, 15 min, 30 min, 45 min, 60 min, 90 min, 120 min, 150 min and 180 min as a pre-incubation time (FIG. 5).
Influence of pre-incubation on inhibitory value of enzyme inhibitor was determined in Examination 3. The temperature of pre-incubation in Examination 3 was changed and the time course of inhibitory effect was determined at variant temperature of pre-incubation.
Using several compounds, 3′-dUTP, compound I-1 and compound C, which evaluated RdRp inhibition in the prior assay method, the time course of HCV RdRp inhibitory effect was determined at 2° C., 20° C. and 25° C. as a pre-incubation temperature for 0 min, 20 min, 40 min, 60 min, 80 min, and 100 min as a pre-incubation time (FIG. 6, FIG. 7, FIG. 8).

[3] = with pre-incubation, I-1 0.5 μg/ml, 3′-dUTP 0.7 μM, A 100 μg/ml, B 50 μg/ml, C 25 μg/ml

T1 sequence (P27958 2421-3011): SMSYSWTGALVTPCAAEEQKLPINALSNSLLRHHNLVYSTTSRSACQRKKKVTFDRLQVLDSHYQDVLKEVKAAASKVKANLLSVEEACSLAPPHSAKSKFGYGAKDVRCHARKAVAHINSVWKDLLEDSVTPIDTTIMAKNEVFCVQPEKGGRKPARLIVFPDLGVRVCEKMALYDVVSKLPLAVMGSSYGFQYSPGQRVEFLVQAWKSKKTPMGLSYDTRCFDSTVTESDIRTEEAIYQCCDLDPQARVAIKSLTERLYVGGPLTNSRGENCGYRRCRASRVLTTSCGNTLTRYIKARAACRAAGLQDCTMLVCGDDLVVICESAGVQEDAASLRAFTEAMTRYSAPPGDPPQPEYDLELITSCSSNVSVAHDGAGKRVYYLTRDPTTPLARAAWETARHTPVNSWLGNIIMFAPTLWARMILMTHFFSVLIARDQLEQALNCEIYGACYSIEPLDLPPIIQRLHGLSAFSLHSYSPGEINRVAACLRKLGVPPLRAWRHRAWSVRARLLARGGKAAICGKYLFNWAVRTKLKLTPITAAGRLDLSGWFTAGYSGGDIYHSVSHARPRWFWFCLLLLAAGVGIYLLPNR

Row | SMILES | Inhibitory rate (Table 2) [1, 3] | Enzyme inhibition rate in a pre-incubation assay method (FIG. 5) ([1]; with pre-incubation, same concentrations as) | Influence of pre-incubation on inhibitory effect at 2° C., 20° C. and 25° C. (FIG. 6, FIG. 7) ([2]; 0 to 100 min) | Influence of pre-incubation time on inhibitory effect (FIG. 5) [2] | Judgement in the pre-incubation method (positive / negative) ([1]; with pre-incubation) | Influence of pre-incubation on inhibitory effect at 2° C. (FIG. 8) ([2]; pre-incubation temperature 2° C., 0 to 100 min) | Influence of pre-incubation on inhibitory effect at 20° C. and 25° C. (FIG. 8) ([2]; pre-incubation temperature 20° C. and 25° C., 0 to 100 min) | inhibition at 100 µg/mL ([1]; 100 μg/ml, pre-incubation 25° C. 60 min, method of Example 1, read-out: Inhibition rate at a concentration of 100 μg/ml) | IC50 ([1]; pre-incubation 25° C. 60 min, method of Example 1) | inhibition at 0.5 µg/mL ([1]; with pre-incubation, I-1 0.5 μg/ml, 3′-dUTP 0.7 μM, A 100 μg/ml, B 50 μg/ml, C 25 μg/ml, read-out: Inhibitory rate (Table 2))
1 | O=c1ccn([C@@H]2O[C@H](COP(=O)(O)OP(=O)(O)OP(=O)(O)O)C[C@H]2O)c(=O)[nH]1 [3′-dUTP, 3′-deoxyuridine triphosphate] | 79% | does not change | not influence by pre-incubation at any temperatures | not a large influence by pre-incubation | – | – | – | – | – | –
2 | Cc1oc(-c2ccccc2)nc1CCOc1ccc(C=C2C(=O)NC(=O)NC2=O)cc1 [Compound A] | 19% | – | – | inhibitory effect decreased with increasing pre-incubation time | negative | – | – | – | – | –
3 | O=C1NC(=O)C(=Cc2ccc(OCCc3cccc4ccccc34)cc2)C(=O)N1 [Compound B] | 1% | – | – | inhibitory effect decreased with increasing pre-incubation time | negative | – | – | – | – | –
4 | CCCCC1=N/C(=C\c2ccccc2OCC(=O)O)C(=O)N1Cc1ccc(-c2ccccc2-c2nnn[nH]2)cc1 [Compound C] | 2% | – | – | inhibitory effect decreased with increasing pre-incubation time | negative result | did not appear clear influence | inhibitory effect decreased greatly | – | – | –
5 | O=C(O)/C(O)=C/C(=O)c1cccc(O)c1 [Compound I-1] | – | – | not influence by pre-incubation at any temperatures | – | positive result | – | – | > 99% | 1920 nM | 62%
